Laboratory results published in ChEMBL document CHEMBL4421728, “Bach1 Inhibitors in Combination with Nrf2 Activators and Pharmaceutical Compositions Thereof” (2017).

Columns and labels:
[1] = target: T1, Transcription regulator protein BACH1 (Homo sapiens) (UniProt O14867); test: Inhibition of Bach1 in normal human lung fibroblasts assessed as induction of HMOX protein expression at 0.156 uM in presence of 30 uM Nrf2 activator DMF incubated for 16 to 18 hrs by immunostaining relative to control
T1 sequence (whole entry): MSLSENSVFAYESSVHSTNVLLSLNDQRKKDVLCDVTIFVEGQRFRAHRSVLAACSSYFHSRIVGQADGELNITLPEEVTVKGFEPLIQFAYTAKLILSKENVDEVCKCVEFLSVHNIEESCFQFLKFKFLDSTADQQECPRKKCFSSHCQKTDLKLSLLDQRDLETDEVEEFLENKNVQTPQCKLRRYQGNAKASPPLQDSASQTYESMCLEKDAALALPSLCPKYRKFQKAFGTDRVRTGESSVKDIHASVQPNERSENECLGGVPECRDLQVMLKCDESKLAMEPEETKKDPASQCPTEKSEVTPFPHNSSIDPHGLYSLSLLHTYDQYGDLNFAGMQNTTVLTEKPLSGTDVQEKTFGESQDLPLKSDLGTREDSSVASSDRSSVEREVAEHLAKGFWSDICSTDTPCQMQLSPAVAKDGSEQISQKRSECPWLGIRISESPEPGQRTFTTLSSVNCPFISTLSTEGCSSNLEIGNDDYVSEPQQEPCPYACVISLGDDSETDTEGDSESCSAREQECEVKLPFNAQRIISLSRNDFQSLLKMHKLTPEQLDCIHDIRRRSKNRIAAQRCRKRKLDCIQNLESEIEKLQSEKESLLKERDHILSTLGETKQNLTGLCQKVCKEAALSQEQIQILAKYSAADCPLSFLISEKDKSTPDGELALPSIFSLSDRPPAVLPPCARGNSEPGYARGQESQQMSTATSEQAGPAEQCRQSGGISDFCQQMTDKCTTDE

[2] = target: T1, Transcription regulator protein BACH1 (Homo sapiens); test: Inhibition of Bach1 in normal human lung fibroblasts assessed as induction of HMOX protein expression at 0.078 uM in presence of 0.1 uM Nrf2 activator DMF incubated for 16 to 18 hrs by immunostaining relative to control
[3] = target: T1, Transcription regulator protein BACH1 (Homo sapiens); test: Inhibition of Bach1 in normal human lung fibroblasts assessed as induction of HMOX protein expression at 0.019 uM in presence of 3 uM Nrf2 activator DMF incubated for 16 to 18 hrs by immunostaining relative to control
[4] = target: T1, Transcription regulator protein BACH1 (Homo sapiens); test: Inhibition of Bach1 in normal human lung fibroblasts assessed as induction of HMOX protein expression by measuring HMOX positive cells level at 0.156 uM in presence of 10 uM Nrf2 activator DMF incubated for 16 to 18 hrs by immunostaining relative to control DMSO; set-up: scale not given: the % may be the effect or the level left
[5] = target: T1, Transcription regulator protein BACH1 (Homo sapiens); test: Inhibition of Bach1 in normal human lung fibroblasts assessed as induction of HMOX protein expression by measuring HMOX positive cells level at 0.019 uM in presence of 0.1 uM Nrf2 activator DMF incubated for 16 to 18 hrs by immunostaining relative to control DMSO; set-up: scale not given: the % may be the effect or the level left
[6] = target: T1, Transcription regulator protein BACH1 (Homo sapiens); test: Inhibition of Bach1 in normal human lung fibroblasts assessed as induction of HMOX protein expression by measuring HMOX positive cells level at 0.019 uM in presence of 0.03 uM Nrf2 activator DMF incubated for 16 to 18 hrs by immunostaining relative to control DMSO; set-up: scale not given: the % may be the effect or the level left
[7] = target: T1, Transcription regulator protein BACH1 (Homo sapiens); test: Inhibition of Bach1 in normal human lung fibroblasts assessed as induction of HMOX protein expression by measuring HMOX positive cells level at 0.039 uM in presence of 0.1 uM Nrf2 activator DMF incubated for 16 to 18 hrs by immunostaining relative to control DMSO; set-up: scale not given: the % may be the effect or the level left
[8] = target: T1, Transcription regulator protein BACH1 (Homo sapiens); test: Inhibition of Bach1 in normal human lung fibroblasts assessed as induction of HMOX protein expression at 0.156 uM in presence of 0.1 uM Nrf2 activator DMF incubated for 16 to 18 hrs by immunostaining relative to control
[9] = target: T1, Transcription regulator protein BACH1 (Homo sapiens); test: Inhibition of Bach1 in normal human lung fibroblasts assessed as induction of HMOX protein expression at 0.019 uM in presence of 1 uM Nrf2 activator DMF incubated for 16 to 18 hrs by immunostaining relative to control
[10] = target: T1, Transcription regulator protein BACH1 (Homo sapiens); test: Inhibition of Bach1 in normal human lung fibroblasts assessed as induction of HMOX protein expression at 0.078 uM in presence of 10 uM Nrf2 activator DMF incubated for 16 to 18 hrs by immunostaining relative to control
[11] = target: T1, Transcription regulator protein BACH1 (Homo sapiens); test: Inhibition of Bach1 in normal human lung fibroblasts assessed as induction of HMOX protein expression at 0.039 uM in presence of 3 uM Nrf2 activator DMF incubated for 16 to 18 hrs by immunostaining relative to control
[12] = target: T1, Transcription regulator protein BACH1 (Homo sapiens); test: Inhibition of Bach1 in normal human lung fibroblasts assessed as induction of HMOX protein expression at 0.078 uM in presence of 3 uM Nrf2 activator DMF incubated for 16 to 18 hrs by immunostaining relative to control
[13] = target: T1, Transcription regulator protein BACH1 (Homo sapiens); test: Inhibition of Bach1 in normal human lung fibroblasts assessed as induction of HMOX protein expression by measuring HMOX positive cells level at 0.078 uM in presence of 3 uM Nrf2 activator DMF incubated for 16 to 18 hrs by immunostaining relative to control DMSO; set-up: scale not given: the % may be the effect or the level left
[14] = target: T1, Transcription regulator protein BACH1 (Homo sapiens); test: Inhibition of Bach1 in normal human lung fibroblasts assessed as induction of HMOX protein expression by measuring HMOX positive cells level at 0.039 uM in presence of 1 uM Nrf2 activator DMF incubated for 16 to 18 hrs by immunostaining relative to control DMSO; set-up: scale not given: the % may be the effect or the level left
[15] = target: T1, Transcription regulator protein BACH1 (Homo sapiens); test: Inhibition of Bach1 in normal human lung fibroblasts assessed as induction of HMOX protein expression at 0.019 uM in presence of 0.03 uM Nrf2 activator DMF incubated for 16 to 18 hrs by immunostaining relative to control
[16] = target: T1, Transcription regulator protein BACH1 (Homo sapiens); test: Inhibition of Bach1 in normal human lung fibroblasts assessed as induction of HMOX protein expression at 0.019 uM in presence of 30 uM Nrf2 activator DMF incubated for 16 to 18 hrs by immunostaining relative to control
[17] = target: T1, Transcription regulator protein BACH1 (Homo sapiens); test: Inhibition of Bach1 in normal human lung fibroblasts assessed as induction of HMOX protein expression by measuring HMOX positive cells level at 0.078 uM in presence of 0.03 uM Nrf2 activator DMF incubated for 16 to 18 hrs by immunostaining relative to control DMSO; set-up: scale not given: the % may be the effect or the level left
[18] = target: T1, Transcription regulator protein BACH1 (Homo sapiens); test: Inhibition of Bach1 in normal human lung fibroblasts assessed as induction of HMOX protein expression at 0.039 uM in presence of 10 uM Nrf2 activator DMF incubated for 16 to 18 hrs by immunostaining relative to control
[19] = target: T1, Transcription regulator protein BACH1 (Homo sapiens); test: Inhibition of Bach1 in normal human lung fibroblasts assessed as induction of HMOX protein expression by measuring HMOX positive cells level at 0.039 uM in presence of 0.03 uM Nrf2 activator DMF incubated for 16 to 18 hrs by immunostaining relative to control DMSO; set-up: scale not given: the % may be the effect or the level left

| SMILES | fold change (FC) [1] | fold change (FC) [2] | fold change (FC) [3] | Activity [4] | Activity [5] | Activity [6] | Activity [7] | fold change (FC) [8] | fold change (FC) [9] | fold change (FC) [10] | fold change (FC) [11] | fold change (FC) [12] | Activity [13] | Activity [14] | fold change (FC) [15] | fold change (FC) [16] | Activity [17] | fold change (FC) [18] | Activity [19] |
| --- | --- | --- | --- | --- | --- | --- | --- | --- | --- | --- | --- | --- | --- | --- | --- | --- | --- | --- | --- |
| Cn1c(Nc2nc3ccc(C(F)(F)F)cc3s2)nc2cc(C(=O)NCCOCCO)ccc21 | 6.18 | 2.87 | 3.55 | 100% | 4.52% | 4.94% | 6.75% | 4.89 | 2.17 | 6.52 | 4 | 4.2 | 90.3% | 38.7% | 1.31 | 4.9 | 33.5% | 5.64 | 11.9% |
| CN(C)C(=O)CNC(=O)c1ccc2c(c1)nc(Nc1nc3ccc(C(F)(F)F)cc3s1)n2C | 5.49 | 1.48 | 2.86 | 100% | 2.37% | 1.18% | 6.82% | 2.54 | 1.68 | 6.46 | 3.01 | 4.33 | 81.8% | 23.5% | 1.1 | 4.65 | 5.99% | 5.13 | 5.74% |
| COCCNC(=O)c1cnc2c(c1)nc(Nc1nc3ccc(OC(F)(F)F)cc3s1)n2C | 4.99 | 1.21 | 2.98 | 99.7% | 2.55% | 1.8% | 2.54% | 1.73 | 1.57 | 5.06 | 2.84 | 3.12 | 55.2% | 23.1% | 1.17 | 4.23 | 1.72% | 4.86 | 1.53% |
